Entries after “also recorded” stand apart in the source; their conditions may differ.
Assays:
chronic spinalized rat = experiment: Flexor reflex (EMG) in the chronic spinalized rat; type: in vivo; settings: 300 mg/kg p.o.; 30, 60, 90 and 120 minutes post-administration
Description: With reference to FIG. 3, the polysynaptic flexor-reflex responses, to test stimuli which activate high-threshold afferents, were recorded as EMG activity from the ipsilateral hamstring muscle. Supramaximal electric shocks were applied to the hindpaw, and recording electrodes were placed in the biceps femoris semitendinosus muscle. Five sets of stimuli were made at each time point. The flexor reflex was recorded, in both the pre-drug and the post-drug periods, every 30 minutes once a stable baseline response was achieved. See Hao et al., Eur. J. Pharmacol. 191: 407 (1990).
Thus, the responses were determined in spinalized rats by observing the flexor-reflex response (FIG. 3) before treatment and at each of 30, 60, 90, and 120 minutes following administration of isovaleramide (300 mg/kg p.o.), baclofen (10 mg/kg s.c.) and vehicle (water, 12 ml/kg p.o.), respectively.
In FIG. 4, the responses from FIG. 3 and additional doses of isovaleramide and baclofen are converted to a total-area-under-the-curve format, covering the entire, two-hour measurement period. […] Between the drug-treated groups, no differences were found in total reduction of the flexor reflex over the two-hour period (pairwise multiple comparison, Student-Newman-Keuls method).

amygdala-kindled rat = experiment: Antiepileptogenic effect during kindling in the amygdala-kindled rat; type: in vivo; settings: daily 500 mg/kg p.o.
Description: In these studies, groups of adult, male Sprague-Dawley rats weighing at least 230 gr were implanted with a teflon-coated bipolar electrode sterotaxically placed in the anterior basolateral nucleus of the amygdala under ketarine and xylazine anesthesia. The electrode was implanted at the following coordinates with Bregma as zero: AP-2.2 mm, ML-4.7 mm, DV-8.7 mm. Chronic treatment with vehicle (0.5% carboxymethylcellulose, p.o.) or isovaleramide (500 mg/kg, p.o., […] of body weight) was initiated after a seven-day postoperative recovery period. […] After 11 treatment days, all animals were permitted a 7-day drug- and stimulus-free period. […] Seizure score and afterdischarge duration were recorded after each stimulation. Seizure score was classified according to Racine scale (1972): stage 0, no abnormal behavior; stage 1, mouth or facial movements; stage 2, mouth or facial movements and head nodding; stage 3, stage 2 and forelimb clonus; stage 4, stage 3 and rearing; stage 5, stage 4 and falling. A score of 2-3 represents a focal seizure while a score of 4-5 represents secondarily generalized seizures. Afterdischarge duration was the total duration of the amygdala electroencephalogram spikes with an amplitude of at least twice the amplitude of the prestimulus recording and a frequency greater than 1/sec. […]

[1] = in vivo; cited from earlier work

SMILES: CC(C)CC(N)=O [Isovaleramide, isovaleramide]
- magnitude of the flexor reflex (chronic spinalized rat): reduce the magnitude of the flexor-reflex responses, at all time points; also recorded: significant decrease in the magnitude of the flexor reflex, comparable to that observed with baclofen
- seizure development over time (amygdala-kindled rat): eventually developed full stage 5 seizures
- increases in seizure score and afterdischarge duration during electrical kindling (amygdala-kindled rat; 30-minute pretreatment): delayed the increases in both seizure score and afterdischarge duration; also recorded: elicited a delay in the rate of increase in both seizure score and afterdischarge duration
- anxiolytic properties [1]: clinically useful anxiolytic properties

Source: patent publication US7265155B2 (NBS Pharmaceuticals, Inc., priority 1996, dated 2007)
